# Source: PMC6193035, “Novel small molecules affecting cell membrane as potential therapeutics for avian pathogenic Escherichia coli” (Scientific Reports, 2018)
# Marks after values point to notes of the source that are not given here.
# Key:
# [1] = tested on: APEC O1; experiment: MIC and MBC determination in M63 media; type: cell-based; settings: Escherichia coli
# [2] = tested on: APEC O15; experiment: MIC and MBC determination in M63 media; type: cell-based; settings: Escherichia coli
# [3] = tested on: APEC O35; experiment: MIC and MBC determination in M63 media; type: cell-based; settings: Escherichia coli
# [4] = tested on: APEC O115; experiment: MIC and MBC determination in M63 media; type: cell-based; settings: Escherichia coli
# [5] = tested on: APEC O78-53; experiment: MIC and MBC determination in M63 media; type: cell-based; settings: Escherichia coli; APEC O78-53, M63 media
# Experimental: One microlitre SM of each concentration was transferred to each well of a 96-well plate containing 100 µL of the 0.05 OD600 adjusted APEC O78 culture in M63 media. Growth was monitored in Sunrise - Absorbance microplate reader as described above. MIC was indicated by lowest concentration of SM with non-elevated OD600 measurement. MBC was determined by absence of APEC growth on LB agar plate following subculture. […] Two independent experiments were conducted.
# [6] = tested on: APEC O2-211; experiment: MIC and MBC determination in M63 media; type: cell-based; settings: Escherichia coli; APEC O2-211, M63 media
# [7] = tested on: APEC O78; experiment: Bacterial cytological profiling by confocal microscopy; type: cell-based, Escherichia coli; settings: 2X MBC, 2 h
# Experimental: Confocal microscopy was used for bacterial cytological profiling (BCP) to identify the cellular pathways targeted by SMs as described previously. […] After incubation, treated cultures were centrifuged, washed, and resuspended in 100 µL PBS. FM4-64 (#T13320 Molecular Probes/Invitrogen) (1 µg/mL) and SYTO-9 (#S34854 Molecular Probes/Invitrogen) (5 µM) were added to the bacterial cultures and incubated for 45 mins at room temperature with shaking at 150 rpm. Cultures were then centrifuged, washed, and resuspended in PBS to 1/10th volume of the original cultures.
# [8] = tested on: APEC O78; experiment: Crystal violet (CV) uptake assay; type: cell-based, Escherichia coli; settings: 2X MBC, 30 mins; P < 0.05, Student's t-test
# Experimental: (§1) Membrane permeability assays (crystal violet (CV) uptake and loss of 260/280 nm absorbing materials) were conducted as described previously. […] CV uptake was measured using the formula: (OD DMSO − OD SM/OD DMSO × 100). Two independent experiments in duplicates were conducted.
# [9] = tested on: APEC O78; experiment: Loss of 260/280 nm absorbing materials assay; type: cell-based, Escherichia coli; settings: 2X MBC, 1 h; for Absorbance 280 nm of treated supernatant: DMSO 2.58; for Absorbance 280 nm of treated supernatant / Absorbance 260 nm of treated supernatant: superscript a P < 0.05 vs DMSO; for Absorbance 260 nm of treated supernatant: DMSO 3.77
# Experimental: as §1
# [10] = tested on: intracellular APEC O1 in Caco-2 cells; experiment: Intracellular survival assay; type: cell-based, Escherichia coli; settings: for minimal effective concentration: Escherichia coli, O1, Caco-2, 6 h treatment, read-out: SMs intracellular APEC clearance concentration; for concentration at which the SM significantly (P < 0.01) reduced intracellular APEC (superscript of t-statistic): O1, Caco-2, 6 h
# Experimental: (§2) Intracellular survival assay was conducted as described previously[28],[29] to determine the effect of cidal SMs on APEC survival in phagocytic (HD11, THP-1) and non-phagocytic (Caco-2) cells. Briefly, mid-logarithmic phase grown APEC O78, O1, and O2 were washed and adjusted to 1 × 10^7 CFU/mL in cell culture incomplete media (no FBS and antibiotics). One-hundred microlitres adjusted APEC suspension was added at multiplicity of infection (MOI) 10 to wells of 96-well cell culture plate containing cultured macrophage (HD11, THP-1) and epithelial cells (Caco-2) and incubated for 1 h and 3 h, respectively. […] The cells were then lysed with 100 µL of 0.1% Triton X-100 for 5 mins, serially diluted, and plated on LB agar plate to enumerate viable bacteria. The intracellular bacteria in SMs treated wells were compared with DMSO (1%) treated wells. Two independent experiments in duplicate wells for each concentration of SMs were conducted.
# [11] = tested on: intracellular APEC O1 in HD11 cells; experiment: Intracellular survival assay; type: cell-based, Escherichia coli; settings: for minimal effective concentration: Escherichia coli, O1, HD11, 6 h treatment, read-out: SMs intracellular APEC clearance concentration; for concentration at which the SM significantly (P < 0.01) reduced intracellular APEC (superscript of t-statistic): O1, HD11, 6 h
# Experimental: as §2
# [12] = tested on: intracellular APEC O1 in THP-1 cells; experiment: Intracellular survival assay; type: cell-based, Escherichia coli; settings: for minimal effective concentration: Escherichia coli, O1, THP-1, 6 h treatment, read-out: SMs intracellular APEC clearance concentration; for concentration at which the SM significantly (P < 0.01) reduced intracellular APEC (superscript of t-statistic): O1, THP-1, 6 h
# Experimental: as §2
# [13] = tested on: intracellular APEC O2 in Caco-2 cells; experiment: Intracellular survival assay; type: cell-based, Escherichia coli; settings: for minimal effective concentration: Escherichia coli, O2, Caco-2, 6 h treatment, read-out: SMs intracellular APEC clearance concentration; for concentration at which the SM significantly (P < 0.01) reduced intracellular APEC (superscript of t-statistic): O2, Caco-2, 6 h
# Experimental: as §2
# [14] = tested on: intracellular APEC O2 in HD11 cells; experiment: Intracellular survival assay; type: cell-based, Escherichia coli; settings: for minimal effective concentration: Escherichia coli, O2, HD11, 6 h treatment, read-out: SMs intracellular APEC clearance concentration; for intracellular APEC clearance concentration as multiple of MIC (superscript): O2, HD11; for concentration at which the SM significantly (P < 0.01) reduced intracellular APEC (superscript of t-statistic): O2, HD11, 6 h
# Experimental: as §2
# [15] = tested on: intracellular APEC O2 in THP-1 cells; experiment: Intracellular survival assay; type: cell-based, Escherichia coli; settings: for minimal effective concentration: Escherichia coli, O2, THP-1, 6 h treatment, read-out: SMs intracellular APEC clearance concentration; for concentration at which the SM significantly (P < 0.01) reduced intracellular APEC (superscript of t-statistic): O2, THP-1, 6 h
# Experimental: as §2
# [16] = tested on: intracellular APEC O78 in Caco-2 cells; experiment: Intracellular survival assay; type: cell-based, Escherichia coli; settings: for minimal effective concentration: Escherichia coli, O78, Caco-2, 6 h treatment, read-out: SMs intracellular APEC clearance concentration; for intracellular APEC clearance concentration as multiple of MIC (superscript): O78, Caco-2; for concentration at which the SM significantly (P < 0.01) reduced intracellular APEC (superscript of t-statistic): O78, Caco-2, 6 h
# Experimental: as §2
# [17] = tested on: intracellular APEC O78 in HD11 cells; experiment: Intracellular survival assay; type: cell-based, Escherichia coli; settings: for minimal effective concentration: Escherichia coli, O78, HD11, 6 h treatment, read-out: SMs intracellular APEC clearance concentration; for intracellular APEC clearance concentration as multiple of MIC (superscript): O78, HD11; for concentration at which the SM significantly (P < 0.01) reduced intracellular APEC (superscript of t-statistic): O78, HD11, 6 h
# Experimental: as §2
# [18] = tested on: intracellular APEC O78 in THP-1 cells; experiment: Intracellular survival assay; type: cell-based, Escherichia coli; settings: for minimal effective concentration: Escherichia coli, O78, THP-1, 6 h treatment, read-out: SMs intracellular APEC clearance concentration; for intracellular APEC clearance concentration as multiple of MIC (superscript): O78, THP-1; for concentration at which the SM significantly (P < 0.01) reduced intracellular APEC (superscript of t-statistic): O78, THP-1, 6 h
# Experimental: as §2
# [19] = tested on: intracellular APEC O78, O2, and O1 in infected Caco-2, HD11, and THP1 cells; experiment: Intracellular survival assay, statements over all serotypes and cells; type: cell-based, Escherichia coli; settings: Escherichia coli, 6 h, O78, O2 and O1; Caco-2, HD11, THP-1; 6 h; read-out: concentration clearing intracellular APEC
# Experimental: as §2
compound,measurement,setting,value
COc1ccc(CCN(Cc2cc3c(cc2Cl)OCO3)CC2CCN(C)CC2)cc1 [SM11],MBC,[1],100 µM
same,MIC,[1],100 µM
same,MBC,[2],100 µM
same,MIC,[2],100 µM
same,MBC,[3],200 µM
same,MIC,[3],100 µM
same,MBC,[4],200 µM
same,MIC,[4],200 µM
same,MBC,[5],200 µM
same,MIC,[5],100 µM
same,MBC,[6],100 µM
same,MIC,[6],100 µM
same,cytological profile (FM4-64 / SYTO-9 staining),[7],bright red foci at random positions throughout the cell indicating membrane defects (membrane pore formers)
same,uptake of crystal violet compared with DMSO,[8],increased the uptake of crystal violet
same,260 nm absorbing materials in supernatant compared with DMSO,[9],"significantly (P < 0.05, Student’s t-test) increased"
same,280 nm absorbing materials in supernatant compared with DMSO,[9],"significantly (P < 0.05, Student’s t-test) increased"
same,Absorbance 280 nm of treated supernatant,[9],2.89^a
same,Absorbance 260 nm of treated supernatant,[9],4.00^a
same,minimal effective concentration,[10],> 200 µM
same,concentration at which the SM significantly (P < 0.01) reduced intracellular APEC (superscript of t-statistic),[10],b (1X MIC)
same,minimal effective concentration,[11],200 µM
same,concentration at which the SM significantly (P < 0.01) reduced intracellular APEC (superscript of t-statistic),[11],b (1X MIC)
same,minimal effective concentration,[12],> 200 µM
same,concentration at which the SM significantly (P < 0.01) reduced intracellular APEC (superscript of t-statistic),[12],b (1X MIC)
same,minimal effective concentration,[13],200 µM
same,intracellular APEC clearance concentration as multiple of MIC (superscript),"[13]; O2, Caco-2",b (2X MIC)
same,concentration at which the SM significantly (P < 0.01) reduced intracellular APEC (superscript of t-statistic),[13],b (1X MIC)
same,minimal effective concentration,[14],200 µM
same,intracellular APEC clearance concentration as multiple of MIC (superscript),[14],b (2X MIC)
same,concentration at which the SM significantly (P < 0.01) reduced intracellular APEC (superscript of t-statistic),[14],a (0.5X MIC)
same,minimal effective concentration,[15],100 µM
same,concentration at which the SM significantly (P < 0.01) reduced intracellular APEC (superscript of t-statistic),[15],a (0.5X MIC)
same,minimal effective concentration,[16],100 µM
same,intracellular APEC clearance concentration as multiple of MIC (superscript),[16],a (1X MIC)
same,concentration at which the SM significantly (P < 0.01) reduced intracellular APEC (superscript of t-statistic),[16],b (1X MIC)
same,minimal effective concentration,[17],100 µM
same,intracellular APEC clearance concentration as multiple of MIC (superscript),[17],a (1X MIC)
same,concentration at which the SM significantly (P < 0.01) reduced intracellular APEC (superscript of t-statistic),[17],a (0.5X MIC)
same,minimal effective concentration,[18],100 µM
same,intracellular APEC clearance concentration as multiple of MIC (superscript),[18],a (1X MIC)
same,concentration at which the SM significantly (P < 0.01) reduced intracellular APEC (superscript of t-statistic),[18],a (0.5X MIC)
same,minimal effective concentration,[19],≥ 100 µM
COc1cc(CNCCc2ccc(C)cc2)ccc1OCC(O)CN1CCCC1 (centres unmarked) [SM3],MBC,[1],200 µM
same,MIC,[1],100 µM
same,MBC,[2],100 µM
same,MIC,[2],100 µM
same,MBC,[3],200 µM
same,MIC,[3],100 µM
same,MBC,[4],100 µM
same,MIC,[4],100 µM
same,MBC,[5],200 µM
same,MIC,[5],100 µM
same,MBC,[6],100 µM
same,MIC,[6],100 µM
same,cytological profile (FM4-64 / SYTO-9 staining),[7],bright red foci at random positions throughout the cell indicating membrane defects (membrane pore formers)
same,uptake of crystal violet compared with DMSO,[8],increased the uptake of crystal violet
same,280 nm absorbing materials in supernatant compared with DMSO,[9],"significantly (P < 0.05, Student’s t-test) increased"
same,Absorbance 280 nm of treated supernatant,[9],2.84^a
same,Absorbance 260 nm of treated supernatant,[9],3.77
same,minimal effective concentration,[10],> 200 µM
same,concentration at which the SM significantly (P < 0.01) reduced intracellular APEC (superscript of t-statistic),[10],c (2XMIC)
same,minimal effective concentration,[11],200 µM
same,concentration at which the SM significantly (P < 0.01) reduced intracellular APEC (superscript of t-statistic),[11],a (0.5X MIC)
same,minimal effective concentration,[12],200 µM
same,intracellular APEC clearance concentration as multiple of MIC (superscript),"[12]; O1, THP-1",b (2X MIC)
same,concentration at which the SM significantly (P < 0.01) reduced intracellular APEC (superscript of t-statistic),[12],a (0.5X MIC)
same,minimal effective concentration,[13],> 200 µM
same,concentration at which the SM significantly (P < 0.01) reduced intracellular APEC (superscript of t-statistic),[13],b (1X MIC)
same,minimal effective concentration,[14],200 µM
same,intracellular APEC clearance concentration as multiple of MIC (superscript),[14],b (2X MIC)
same,concentration at which the SM significantly (P < 0.01) reduced intracellular APEC (superscript of t-statistic),[14],a (0.5X MIC)
same,minimal effective concentration,[15],100 µM
same,concentration at which the SM significantly (P < 0.01) reduced intracellular APEC (superscript of t-statistic),[15],a (0.5X MIC)
same,minimal effective concentration,[16],100 µM
same,intracellular APEC clearance concentration as multiple of MIC (superscript),[16],a (1X MIC)
same,concentration at which the SM significantly (P < 0.01) reduced intracellular APEC (superscript of t-statistic),[16],a (0.5X MIC)
same,minimal effective concentration,[17],100 µM
same,intracellular APEC clearance concentration as multiple of MIC (superscript),[17],a (1X MIC)
same,concentration at which the SM significantly (P < 0.01) reduced intracellular APEC (superscript of t-statistic),[17],a (0.5X MIC)
same,minimal effective concentration,[18],100 µM
same,intracellular APEC clearance concentration as multiple of MIC (superscript),[18],a (1X MIC)
same,concentration at which the SM significantly (P < 0.01) reduced intracellular APEC (superscript of t-statistic),[18],a (0.5X MIC)
same,minimal effective concentration,[19],≥ 100 µM
